Results on 2 molecules are retold here after PMC3636874, “An Antedrug of the CXCL12 Neutraligand Blocks Experimental Allergic Asthma without Systemic Effect in Mice” (The Journal of Biological Chemistry, 2013).

Details of series [1]: method as in PMID 24900366. As to conditions: cited from earlier work.
Details of series [2]: method as in PMID 24900366. As to conditions: cited from earlier work. This is another data set of the same source.
The next series has as its target T1, CXCL12 binding to CXCR4 (Homo sapiens, UniProt P48061).
T1 construct: expressed in transfected cells
Kind of series: FRET-based binding of CXCL12-TR to EGFP-hCXCR4 (competition). The following applies: dose-dependent. The protocol: FRET-based binding experiments were carried out as described ([26], [46]). Human embryonic kidney 293 cells expressing the fusion receptor EGFP-hCXCR4 were harvested in PBS (137 mM NaCl, 2.7 mM KCl, 4.3 mM Na2PO4·7H2O, 1.4 mM KH2PO4, pH 7.4) supplemented with 5 mM EDTA, pH 7.4, centrifuged, and resuspended in HEPES-bovine serum albumin (BSA) buffer (10 mM HEPES, 137.5 mM NaCl, 1.25 mM MgCl2, 1.25 mM CaCl2, 6 mM KCl, 10 mM glucose, 0.4 mM NaH2PO4, 0.1% bovine serum albumin (w/v), pH 7.4). Cells were used at a concentration of 10^6 cells/ml. Apparent affinities of the different ligands were determined by real-time fluorescence monitoring ligand-receptor interactions. […] Fluorescence emitted at 510 nm (excitation at 470 nm) was recorded at 21 °C using a Fluorolog 2 spectrofluorimeter (SPEX) and sampled every 0.3 s. Binding of CXCL12-TR to EGFP-labeled CXCR4 was detected as a reversible decline of emission at 510 nm, due to energy transfer from excited EGFP to TR. For competition experiments, the fluorescent chemokine was preincubated for 1 h at room temperature with or without various concentrations of each chalcone. Then the premix was added, and fluorescence was recorded until equilibrium was reached (300 s). Data were analyzed using Kaleidagraph 3.08 software (Synergy Software, Reading, PA).

The test system of a further series is HepG2 cells. Kind of series: Cytotoxicity, Alamar Blue (resazurin) reduction assay. Type of series: cell-based, human. As to conditions: HepG2: 10 μM, 24 h. The protocol:
The capacity of the cells to carry out reduction reactions after drug treatment was estimated with the fluorescent Alamar Blue reagent (AbD Serotec, Oxford, UK). Proliferating cells cause the change from the oxidized blue and non-fluorescent Alamar Blue form (resazurin) to a reduced, pink, highly fluorescent form (resorufin) that can be detected using fluorescence monitoring (excitation 560 nm; emission 590 nm). HepG2 or HEK 293 cells were seeded at a density of 30,000 cells/well on a 96-well plate and allowed to settle overnight before treatment. The dye was added to the cells together with the test substances (5-fold concentrated stock solution prepared in culture medium or in PBS with 10% HP-βCD), and the fluorescence was measured after 24-h incubation, using a Flex Station (Molecular Devices).
In general terms: Resazurin is reduced to fluorescent resorufin, in cell work by metabolically active cells.

A short description of series [3]: General toxicity in vivo: body and spleen weight. On the set-up: species or system mouse. As to conditions: for Weight, Body (percentage of control animals) / Weight, Spleen: three days. The protocol:
General toxicity was evaluated in vivo in mice that received CN-chalcone 4 intraperitoneally at a dose of 350 μmol/kg (100 mg/kg) per day during three consecutive days. As reported in Table 2, there was no body or spleen weight loss nor any modification of cytochrome c oxidase activity in lung and heart, indicating no toxicity of CN-chalcone 4 administered at the highest active dose.

The subject of a further series is Cytochrome c oxidase. Description: Cytochrome c oxidase activity in lung and heart homogenates of treated mice. The following applies: intraperitoneal 350 μmol/kg per day, three days. The format is in vivo, mouse. The procedure:
Lung and heart were homogenized separately with an UltraTurax® (IMLAB, Lille, France) in PBS, pH 7.4 (one organ in 1 ml of buffer). Lung homogenate was diluted at 1:2 and heart homogenate at 1:5 in PBS. 100 μl of each diluted homogenate were placed in a microplate, and 100 μl of assay reagent (10 mM tetramethyl-p-phenylenediamine, 2 mM sodium ascorbate, 20 mM KH2PO4) were added. The microplate was placed immediately in a microplate spectrophotometer reader, and optical density kinetic (λ = 610 nm) was measured every 20 s for 30 min. Results are expressed as Vmax/100 μg of protein (OD/min/100 μg of protein).

Series [4] can be described thus: Chemical stability in PBS pH 7.4. The format is physicochemical. The procedure:
Solubility and stability studies were performed on a Gilson HPLC system with a photodiode array detector, an autosampler, and a Valco injector. Data acquisition and processing were performed with Trilution LC version 2.0 software. Measurements were carried out at 21 ± 1 °C. A 2.6-μm Kinetex column (50 × 4.6 mm) was used for stability studies in biological media, and a 5-μm Luna C18(2) column (50 × 4.6 mm) was used for solubility and chemical stability analysis. Both columns were purchased from Phenomenex. The injection volume was 20 μl, the mobile phase flow rate was 2 ml/min, and the following program was applied for the elution: 0–0.2 min, 0% B; 0.2–2.7 min, 0–100% B; 2.7–3.2 min, 100% B; 3.2–3.4 min, 100–0% B; 3.4–6.1 min, 0% B. Solvent B was HPLC grade acetonitrile (Sigma-Aldrich CHROMASOLV). The aqueous solvent contained 0.1% trifluoroacetic acid, and the detection wavelength was 365 nm.
Stability of compounds was assessed in PBS, pH 7.4, with or without 10% HP-βCD at 20 °C up to 24 h. For each compound, the 10 mM DMSO stock solution was diluted to a final incubation concentration of 10 μM with 0.1% DMSO. 20 μl of sample were removed at t0, 1, 2, 4, 6, 8, 10, and 24 h and directly injected onto the HPLC. The percentage of remaining test compound relative to t0 was measured by monitoring the peak area on the chromatogram.

[5] abbreviates: OVA-challenged mice, intraperitoneal 350 μmol/kg per day.

Read-outs that look alike come from different tables or passages of the source.

Regarding `COc1cc(/C=C/C(=O)c2ccc(Cl)cc2)ccc1O` [chalcone 4], the “Stability half-life (t1/2), PBS” value in series [1] (PBS pH 7.4) is listed as greater than 10 h. Also, the “Stability half-life (t1/2), PBS, 10% β-cyclodextrine” value in series [1] (PBS with 10% HP-βCD) is recorded as greater than 10 h. Moreover, in series [1] (at 10 h), the “percentage of starting molecule recovered, PBS” value was 98% and the “percentage of starting molecule recovered, PBS, 10% β-cyclodextrine” value was 95%. In addition, in series [2] (mouse lung homogenate), the “Stability half-life (t1/2), lung homogenate” value is listed as greater than 6 h. Also, the “percentage of starting molecule recovered, lung homogenate” value in series [2] (time not given) is on record as 60%.

On to `COc1cc(/C=C(\C#N)C(=O)c2ccc(Cl)cc2)ccc1O` [CN-chalcone 4, (E)-2-(4-chlorobenzoyl)-3-(4-hydroxy-3-methoxyphenyl)acrylonitrile], for which the “concentration giving maximal inhibition of CXCL12 binding to CXCR4” value at CXCL12 binding to CXCR4 is greater than 1 µM. Besides, the “toxic effect in vivo or in HepG2 cells in vitro” value in the series with HepG2 cells is given as “neither the reactants nor carbonitrile-chalcone 4 display any toxic effect”. Also, the “Weight, Body (percentage of control animals)” value in series [3] (setting [5]) is reported as 99.6 ± 6%; in series [3] (mice without OVA, intraperitoneal 350 μmol/kg (100 mg/kg) per day, carboxymethylcellulose), 99.6 ± 6%. Also, the “Weight, Spleen” value in series [3] (setting [5]) came to 123 ± 4 mg; in series [3] (mice without OVA, intraperitoneal 350 μmol/kg per day), 125 ± 11 mg. In addition, the “general toxicity in vivo (body and spleen weight, cytochrome c oxidase activity in lung and heart)” value in series [3] (mice, intraperitoneal 350 μmol/kg (100 mg/kg) per day during three consecutive days) is “no toxicity”. The “Cytochrome c oxidase (Vmax), Heart (×10^3)” value is listed as 29.9 ± 3.5 OD/min/100 μg of protein (×10^ in the series with Cytochrome c oxidase (OVA-challenged mice) and 28.5 ± 3.2 OD/min/100 μg of protein (×10^ with Cytochrome c oxidase (mice without OVA). Besides, the “Cytochrome c oxidase (Vmax), Lung (×10^2)” value is on record as 12.7 ± 1.6 OD/min/100 μg of protein (×10^ with Cytochrome c oxidase (OVA-challenged mice) and 13.8 ± 2.8 OD/min/100 μg of protein (×10^ in the series with Cytochrome c oxidase (mice without OVA). In addition, the half-life at 10 μM was 6 h in series [4] (PBS pH 7.4, 20 °C, read-out: Stability half-life (t1/2), PBS (converted)) and 16.3 h in series [4] (PBS with 10% HP-βCD, PBS pH 7.4 with 10% HP-βCD, 20 °C, read-out: Stability half-life (t1/2), PBS, 10% β-cyclodextrine (converted)).
